From publication PMC9230201, “Sustained Consumption of a Decaffeinated Green Coffee Nutraceutical Has Limited Effects on Phenolic Metabolism and Bioavailability in Overweight/Obese Subjects” (Nutrients, 2022)

How the values were obtained:
[1] = Fecal excretion of phenolic metabolites after intake of the GCPE nutraceutical; conditions: feces
Method: (§1) Participants attended the Human Nutrition Unit (HNU) at the Institute of Food Science, Technology and Nutrition (ICTAN-CSIC) on two consecutive days at the beginning of the intervention (week 0) and also on two consecutive days at the end of the study, after consuming daily two doses of the GCPE nutraceutical, providing 600 mg/d phenols, during two months (week 8). […] A licensed health care professional placed an intravenous catheter in the subjects′ nondominant arm and collected a fasting blood sample (baseline, 0 h). Then, subjects drank the soluble GCPE nutraceutical dissolved in 200 mL of water. […] On the sampling days, volunteers remained at the HNU, where a (poly)phenol-free diet was provided. Half an hour after consuming the nutraceutical, volunteers ate a breakfast consisting of ham, cheese, white bread, and a yogurt. Lunch (paella, bread, and yogurt) and an afternoon snack (muffin and yogurt) were eaten 5 and 9 h, respectively, after consuming the nutraceutical. Water and isotonic beverages were freely available. […] The same protocol was followed during visits at the end of the 8-week intervention. On each occasion, two days before each visit to the HNU, subjects consumed a low (poly)phenol diet free of foods containing hydroxycinnamates such as coffee, herbal teas, red wine, artichokes, whole grain cereals, vegetables, fruits and fruit juices, and dried fruits. Only banana, watermelon, cantaloupes, and potatoes were allowed.
(§2) Blood samples were immediately centrifuged (10 min, 3000 rpm, 4 °C) to obtain plasma. […] All biological samples were stored at −80 °C until analysis.
(§3) To extract plasma metabolites, 10 µL of 50% (v/v) aqueous formic acid, and 900 µL cold acetonitrile containing 50 µL of 10% (w/v) ascorbic acid were added to 400 µL defrosted plasma. Samples were vortexed and centrifuged (14,000 rpm, 10 min, 4 °C), repeating the extraction and combining the two supernatants, which were reduced to dryness under nitrogen [13]. Dried samples were resuspended in 150 µL of 0.1% aqueous formic acid (containing 10% acetonitrile acidified with 0.1% formic acid), centrifuged (15 min, 14,000 rpm, 4 °C), and the supernatant collected. Urine samples were diluted 1:1 with Milli-Q water and centrifuged (14,000 rpm, 20 min, 4 °C) prior to analysis. Phosphate-buffered saline (3 mL) was added to a representative 300 mg sample of thawed feces, homogenized in an ultrasound bath during 10 min, centrifuged (14,000 rpm, 20 min, 4 °C), and the supernatants collected.
(§4) Mobile phase A was 0.1% formic acid in Milli-Q water, and mobile phase B was acetonitrile containing 0.1% formic acid at a 0.3 mL/min flow rate. […] Metabolites were identified based on their retention time using authentic standards when possible. […] Urine concentration of excreted metabolites was normalized to the total volume excreted in each studied interval.
(§5) Plasma (30 µL), urine (5 µL) and fecal extracts (5 µL) were filtered through 0.45 µm
(§6) cellulose-acetate membrane filters and injected into an Agilent 1200 series LC system
(§7) ESI-Jet Stream Technology (Agilent Technologies). A reverse-phase Ascentis Express
(§8) C18 (15 cm x 3 mm, 2.7 µm) column (Sigma-Aldrich Quimica, Madrid), preceded by a
(§9) phase A was 0.1% formic acid in Milli-Q water, and mobile phase B was acetonitrile
(§10) containing 0.1% formic acid at a 0.3 mL/min flow rate. The gradient started with 10% B
(§11) at 0 min, 30% B at 10 min, 40% B at 15 min, reaching 50% B at 20 min. The starting
(§12) gradient was then re-established in 2 min and maintained for 8 min to re-equilibrate the

[2] = Urinary excretion of phenolic metabolites after intake of the GCPE nutraceutical; conditions: for Cumulative urinary excretion, Total 0–24 h: urine, mean ± SEM, n = 9
Method: as §1, §2, §3, §4, §5, §6, §7, §8, §9, §10, §11, §12

[3] = Plasma pharmacokinetics of phenolic metabolites after intake of the GCPE nutraceutical (LC-MS-QToF); conditions: human, oral; for AUC(0-t) / Tmax: 300 mg hydroxycinnamic acids; for AUC(0-t): AUC0–24h; for Tmax: Tmax (h) or Range; for Cmax: 300 mg, mean ± SEM, n = 9

- Amount of fecal metabolite excreted at 0 h ([1]; week 0, mean ± SEM, n = 9): 0.013 ± 0.004 µmol/g
- Amount of fecal metabolite excreted at 0 h ([1]; week 8): 0.018 ± 0.003 µmol/g
- Amount of fecal metabolite excreted at 24 h ([1]; week 0): 0.019 ± 0.007 µmol/g
- Amount of fecal metabolite excreted at 24 h ([1]; week 8): 0.014 ± 0.003 µmol/g
- Cumulative urinary excretion, Total 0–24 h ([2]; week 0): 0.5 ± 0.2 µmol
- Cumulative urinary excretion, Total 0–24 h ([2]; week 8): 1.1 ± 0.4 µmol
- Amount excreted in urine, 0- 3 h ([2]; week 0, interval 0–3 h): 0.03 ± 0.02 µmol
- Amount excreted in urine, 3-6 h ([2]; week 0, interval 3–6 h): 0.007 ± 0.007 µmol
- Amount excreted in urine, 6-9 h ([2]; week 0, interval 6–9 h): 0.08 ± 0.04 µmol
- Amount excreted in urine, 9-11 h ([2]; week 0, interval 9–11 h): 0.05 ± 0.02 µmol
- Amount excreted in urine, 11-24 h ([2]; week 0, interval 11–24 h): 0.11 ± 0.05 µmol
- Amount excreted in urine, 0- 3 h ([2]; week 8, interval 0–3 h): 0.08 ± 0.07 µmol
- Amount excreted in urine, 3-6 h ([2]; week 8, interval 3–6 h): 0.03 ± 0.02 µmol
- Amount excreted in urine, 6-9 h ([2]; week 8, interval 6–9 h): 0.07 ± 0.05 µmol
- Amount excreted in urine, 9-11 h ([2]; week 8, interval 9–11 h): 0.09 ± 0.04 µmol
- Amount excreted in urine, 11-24 h ([2]; week 8, interval 11–24 h): 0.07 ± 0.04 µmol
Compound: COc1cc(CCC(=O)O)ccc1O [DHFA, 3-(4′-Hydroxy-3′-methoxyphenyl)propanoic acid]
- AUC(0-t) ([3]; week 0): 2.2 ± 0.6 µM·h
- AUC(0-t) ([3]; week 8): 1.8 ± 0.3 µM·h
- Tmax ([3]; week 0, first peak where biphasic): 7.6 ± 0.4 h
- Tmax ([3]; week 8, first peak where biphasic): 8.4 ± 0.6 h
- Cmax ([3]; week 0, GCPE nutraceutical with 300 mg hydroxycinnamic acids): 300 ± 100 nM
- Cmax ([3]; week 8, GCPE nutraceutical with 300 mg hydroxycinnamic acids): 250 ± 60 nM
